This note sets out measurements from US20200069691A1, “HETEROCYCLIC COMPOUNDS AS HIV PROTEASE INHIBITORS” (Merck Sharp & Dohme Corp., priority 2016, published 2020).

The target of this test is T1, wild-type HIV-1 protease (Human immunodeficiency virus type 1 group M subtype B, UniProt P04585).
T1 construct: Escherichia coli expressed wild-type HIV-1 protease protein
As to the kind of experiment: Assay for Inhibition of Microbial Expressed HIV Protease (peptide substrate cleavage, LC-MS/MS readout). The test is classed as biochemical. The settings on record: E. coli expressed wild-type HIV-1 protease, mean of at least two independent experiments, read-out: HIV Pr Enzyme HIV1 PR IC50. The procedure, abridged: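 E. coli-expressed wild-type HIV-1 protease ([…]) was preincubated with inhibitor 30 min at room temperature in pH 5.5 acetate buffer (100 mM NaCl, 0.1% BSA). Then 400 μM octapeptide substrate was added and reacted 1 h at 30 °C; inhibition came from LC-MS/MS product peak areas, mean of ≥2 experiments.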

pIC50: −log10 of the molar value.

Turning to `COC(=O)N1CCN(C(=O)c2cccc(CN3C(=N)NC(CCC(C)C)(c4ccc(F)cc4)C3=O)c2)CC1` (stereo not shown) [Compound 239, methyl 4-[(3-{[4-(4-fluorophenyl)-2-imino-4-(3-methylbutyl)-5-oxoimidazolidin-1-yl]methyl}phenyl)carbonyl] piperazine-1-carboxylate], the pIC50 (usually −log10 of the IC50, conventionally taken in molar units) was 7.82.
Then `COC(=O)N1CCN(C(=O)c2cccc(CN3C(=N)NC(c4ccc(F)cc4)(c4cccc(Br)c4)C3=O)c2)CC1` (stereo not shown) [Compound 240, methyl 4-[(3-{[4-(3-bromophenyl)-4-(4-fluorophenyl)-2-imino-5-oxoimidazolidin-1-yl]methyl}phenyl)carbonyl] piperazine-1-carboxylate], with 7.82; and `Cn1ncc2c1CN(C(=O)c1cccc(CN3C(=N)NC(c4ccccc4)(c4ccccc4)C3=O)c1)C2` [Compound 241, 2-imino-3-{3-[(1-methyl-4,6-dihydropyrrolo [3,4-c]pyrazol-5(1H)-yl)carbonyl]benzyl}-5,5-diphenylimidazolidin-4-one], with 7.81; and `N=C1NC(c2ccccc2)(c2ccccc2)C(=O)N1Cc1cccc(C(=O)N2Cc3cnc(C(F)(F)F)nc3C2)c1` [Compound 242, 2-imino-5,5-diphenyl-3-(3-{[2-(trifluoromethyl)-5,7-dihydro-6H-pyrrolo[3,4-d]pyrimidin-6-yl]carbonyl}benzyl) imidazolidin-4-one], with 7.78.
Take `CCCC1(c2ccccc2)NC(=N)N(Cc2cccc(C(=O)N3Cc4cnc(C#N)nc4C3)c2)C1=O` (stereo not shown) [Compound 243, 6-({3-[(2-imino-5-oxo-4-phenyl-4-propylimidazolidin-1-yl)methyl]phenyl}carbonyl)-6,7-dihydro-5H-pyrrolo[3,4-d]pyrimidine-2-carbonitrile]: the pIC50 was 7.78.
For the compound `CC(C)CCC1(c2ccccc2)NC(=N)N(Cc2cccc(C(=O)N3CCN(c4ncccn4)CC3)c2)C1=O` (stereo not shown) [Compound 244, 2-imino-5-(3-methylbutyl)-5-phenyl-3-{3-[(4-pyrimidin-2-ylpiperazin-1-yl)carbonyl]benzyl} imidazolidin-4-one], the pIC50 was 7.78.
Take `CCOC(=O)c1cn2c(n1)CN(C(=O)c1cccc(CN3C(=N)NC(c4ccccc4)(c4ccccc4)C3=O)c1)CC2` [Compound 245, ethyl 7-({3-[(2-imino-5-oxo-4,4-diphenylimidazolidin-1-yl)methyl]phenyl}carbonyl)-5,6,7,8-tetrahydroimidazo[1,2-a]pyrazine-2-carboxylate]: the pIC50 was 7.77.
Consider `CSc1nnc2n1CCN(C(=O)c1cccc(CN3C(=N)NC(c4ccccc4)(c4ccccc4)C3=O)c1)C2` [Compound 246, 2-imino-3-(3-{[3-(methylsulfanyl)-5,6-dihydro[1,2,4]triazolo[4,3-a]pyrazin-7(8H)-yl]carbonyl}benzyl)-5,5-diphenylimidazolidin-4-one], for which the pIC50 was 7.76.
Then `CCOC(=O)c1nc2n(c1Cl)CCN(C(=O)c1cccc(CN3C(=N)NC(c4ccccc4)(c4ccccc4)C3=O)c1)C2` [Compound 247, ethyl 3-chloro-7-({3-[(2-imino-5-oxo-4,4-diphenylimidazolidin-1-yl)methyl]phenyl}carbonyl)-5,6,7,8-tetrahydroimidazo[1,2-a]pyrazine-2-carboxylate], with 7.75; and `N=C1NC(c2ccc(F)cc2)(c2ccccn2)C(=O)N1Cc1cccc(C(=O)N2Cc3[nH]nc(C(F)(F)F)c3C2)c1` (stereo not shown) [Compound 248, 5-(4-fluorophenyl)-2-imino-5-pyridin-2-yl-3-(3-{[3-(trifluoromethyl)-4,6-dihydropyrrolo [3,4-c]pyrazol-5(1H)-yl]carbonyl}benzyl) imidazolidin-4-one], with 7.74; and `CC(C)CCC1(c2ccccc2)NC(=N)N(Cc2cccc(C(=O)N3Cc4nccnc4C3)c2)C1=O` (stereo not shown) [Compound 249, 3-[3-(5,7-dihydro-6H-pyrrolo[3,4-b]pyrazin-6-ylcarbonyl)benzyl]-2-imino-5-(3-methylbutyl)-5-phenylimidazolidin-4-one], with 7.74.
Under `N=C1NC(c2ccccc2)(c2ccccc2)C(=O)N1Cc1cccc(C(=O)N2CCn3cc(C(=O)C4CC4)nc3C2)c1` [Compound 250, 3-(3-{[2-(cyclopropylcarbonyl)-5,6-dihydroimidazo [1,2-a]pyrazin-7(8H)-yl]carbonyl}benzyl)-2-imino-5,5-diphenylimidazolidin-4-one] stands 7.72.
Regarding `CNC(=O)c1nc2n(c1Cl)CCN(C(=O)c1cccc(CN3C(=N)NC(c4ccccc4)(c4ccccc4)C3=O)c1)C2` [Compound 251, 3-chloro-7-({3-[(2-imino-5-oxo-4,4-diphenylimidazolidin-1-yl)methyl]phenyl}carbonyl)-N-methyl-5,6,7,8-tetrahydroimidazo[1,2-a]pyrazine-2-carboxamide], the pIC50 is 7.72.
Under `CC(C)CCC1(c2ccc(F)cc2)NC(=N)N(Cc2cccc(C(=O)N3Cc4nccnc4C3)c2)C1=O` (stereo not shown) [Compound 252, 3-[3-(5,7-dihydro-6H-pyrrolo[3,4-b]pyrazin-6-ylcarbonyl)benzyl]-5-(4-fluorophenyl)-2-imino-5-(3-methylbutyl)imidazolidin-4-one] stands 7.70.
Under `CC(C)CC1(c2ccccc2)NC(=N)N(Cc2cccc(C(=O)N3Cc4cncnc4C3)c2)C1=O` (stereo not shown) [Compound 253, 3-[3-(5,7-dihydro-6H-pyrrolo[3,4-d]pyrimidin-6-ylcarbonyl)benzyl]-2-imino-5-(2-methylpropyl)-5-phenylimidazolidin-4-one] stands 7.70.
Under `Cc1ncc2c(n1)CN(C(=O)c1cccc(CN3C(=N)NC(c4ccc(F)cc4)(c4ccc(F)cc4)C3=O)c1)C2` [Compound 254, 5,5-bis(4-fluorophenyl)-2-imino-3-{3-[(2-methyl-5,7-dihydro-6H-pyrrolo[3,4-d]pyrimidin-6-yl)carbonyl]benzyl} imidazolidin-4-one] stands 7.69; under `COC(=O)N1CCN(C(=O)c2cccc(CN3C(=N)NC(CCC(C)C)(c4ccccc4)C3=O)c2)CC1` (stereo not shown) [Compound 255, methyl 4-[(3-{[2-imino-4-(3-methylbutyl)-5-oxo-4-phenylimidazolidin-1-yl]methyl}phenyl)carbonyl] piperazine-1-carboxylate], 7.68.
As to `N=C1NC(c2ccc(F)cc2)(c2ccccn2)C(=O)N1Cc1cccc(C(=O)N2Cc3ccccc3C2)c1` (stereo not shown) [Compound 256, 3-[3-(1,3-dihydro-2H-isoindol-2-ylcarbonyl)benzyl]-5-(4-fluorophenyl)-2-imino-5-pyridin-2-ylimidazolidin-4-one], the pIC50 was 7.68.
As for `Cc1nc2c([nH]1)CN(C(=O)c1cccc(CN3C(=N)NC(CCC(C)C)(c4ccccc4)C3=O)c1)C2` (stereo not shown) [Compound 257, 2-imino-5-(3-methylbutyl)-3-{3-[(2-methyl-4,6-dihydropyrrolo[3,4-d]imidazol-5(1H)-yl)carbonyl]benzyl}-5-phenylimidazolidin-4-one], the pIC50 is 7.67.
On to `N=C1NC(c2ccccc2)(c2ccccc2)C(=O)N1Cc1cc(F)cc(C(=O)N2Cc3cncnc3C2)c1` [Compound 258, 3-[3-(5,7-dihydro-6H-pyrrolo[3,4-d]pyrimidin-6-ylcarbonyl)-5-fluorobenzyl]-2-imino-5,5-diphenylimidazolidin-4-one], for which the pIC50 was 7.66.
Consider `CC(C)CC1(c2ccccc2)NC(=N)N(Cc2cccc(C(=O)N3Cc4cccnc4C3)c2)C1=O` (stereo not shown) [Compound 259, 3-[3-(5,7-dihydro-6H-pyrrolo[3,4-b]pyridin-6-ylcarbonyl)benzyl]-2-imino-5-(2-methylpropyl)-5-phenylimidazolidin-4-one], for which the pIC50 is 7.65.
Take `N=C1NC(c2ccccc2)(c2ccccc2)C(=O)N1Cc1cccc(C(=O)N2CCN(C(=O)OCc3ccccc3)CC2)c1` [Compound 260, benzyl 4-({3-[(2-imino-5-oxo-4,4-diphenylimidazolidin-1-yl)methyl]phenyl}carbonyl) piperazine-1-carboxylate]: the pIC50 is 7.64.
`CC(C)C[C@]1(c2ccccc2)NC(=N)N([C@H](C)c2cccc(C(=O)N3Cc4cncnc4C3)c2)C1=O` [Compound 261, 3-{(1R)-1-[3-(5,7-dihydro-6H-pyrrolo[3,4-d]pyrimidin-6-ylcarbonyl)phenyl]ethyl}-2-imino-5-(2-methylpropyl)-5-phenylimidazolidin-4-one]: the pIC50 was 7.63.
Under `N#Cc1cccc(C2(c3ccc(F)cc3)NC(=N)N(Cc3cccc(C(=O)N4Cc5ccccc5C4)c3)C2=O)c1` (stereo not shown) [Compound 262, 3-{1-[3-(1,3-dihydro-2H-isoindol-2-ylcarbonyl)benzyl]-4-(4-fluorophenyl)-2-imino-5-oxoimidazolidin-4-yl}benzonitrile] stands 7.61; under `CCC(c1cccc(C(=O)N2Cc3cncnc3C2)c1)N1C(=N)NC(c2ccccc2)(c2ccccc2)C1=O` (stereo not shown) [Compound 263, 3-{1-[3-(5,7-dihydro-6H-pyrrolo[3,4-d]pyrimidin-6-ylcarbonyl)phenyl]propyl}-2-imino-5,5-diphenylimidazolidin-4-one], 7.61.
As to `CC(C)CC1(c2cccc(F)c2)NC(=N)N(Cc2cccc(C(=O)N3Cc4ccccc4C3)c2)C1=O` (stereo not shown) [Compound 264, 3-[3-(1,3-dihydro-2H-isoindol-2-ylcarbonyl)benzyl]-5-(3-fluorophenyl)-2-imino-5-(2-methylpropyl) imidazolidin-4-one], the pIC50 was 7.61.
Under `CC(C)CCC1(c2cccc(F)c2)NC(=N)N(Cc2cccc(C(=O)N3Cc4nccnc4C3)c2)C1=O` (stereo not shown) [Compound 265, 3-[3-(5,7-dihydro-6H-pyrrolo[3,4-b]pyrazin-6-ylcarbonyl)benzyl]-5-(3-fluorophenyl)-2-imino-5-(3-methylbutyl)imidazolidin-4-one] stands 7.61; under `CC(c1cccc(C(=O)N2Cc3cncnc3C2)c1)N1C(=N)NC(c2ccccc2)(c2ccccc2)C1=O` (stereo not shown) [Compound 266, 3-{1-[3-(5,7-dihydro-6H-pyrrolo[3,4-b]pyrazin-6-ylcarbonyl)phenyl]ethyl}-2-imino-5.5-diphenylimidazolidin-4-one], 7.58.
